Measured values as given in PubChem BioAssay AID1259407 (Chemical Carcinogenesis Research Information System (CCRIS), 2018).
Calls of active or inactive are those of the source. No rule for the calls is given here.

Tested on: CCRIS mutagenicity, Ames/micronucleus/aberration tests
Assay: CCRIS mutagenicity studies
[1] = Test System: AMES SALMONELLA TYPHIMURIUM, Strain/Indicator: TA98, Metabolic Activation: NONE, Method: STANDARD PLATE
[2] = Test System: AMES SALMONELLA TYPHIMURIUM, Strain/Indicator: TA98, Metabolic Activation: RAT, LIVER, S-9, AROCLOR 1254, Method: STANDARD PLATE
[3] = Test System: AMES SALMONELLA TYPHIMURIUM, Strain/Indicator: TA100, Metabolic Activation: NONE, Method: STANDARD PLATE
[4] = Test System: AMES SALMONELLA TYPHIMURIUM, Strain/Indicator: TA100, Metabolic Activation: RAT, LIVER, S-9, AROCLOR 1254, Method: STANDARD PLATE
[5] = Test System: AMES SALMONELLA TYPHIMURIUM, Strain/Indicator: TA1535, Metabolic Activation: RAT, LIVER, S-9, AROCLOR 1254, Method: STANDARD PLATE
[6] = Test System: AMES SALMONELLA TYPHIMURIUM, Strain/Indicator: TA1537, Metabolic Activation: NONE, Method: STANDARD PLATE
[7] = Test System: AMES SALMONELLA TYPHIMURIUM, Strain/Indicator: TA1537, Metabolic Activation: RAT, LIVER, S-9, AROCLOR 1254, Method: STANDARD PLATE

Structure (SMILES): ClC(Cl)Cl
- mutagenic call (Test System: AMES SALMONELLA TYPHIMURIUM, Strain/Indicator: RSJ100, Metabolic Activation: NONE, Method: PREINCUBATION): inactive; negative
- mutagenic call (Test System: AMES SALMONELLA TYPHIMURIUM, Strain/Indicator: RSJ100, Metabolic Activation: RAT LIVER S-9, Method: PREINCUBATION): inactive; negative
- mutagenic call (Test System: AMES SALMONELLA TYPHIMURIUM, Strain/Indicator: TA98, Metabolic Activation: NONE, Method: PREINCUBATION): inactive; negative
- mutagenic call [1]: active; positive
- mutagenic call (Test System: AMES SALMONELLA TYPHIMURIUM, Strain/Indicator: TA98, Metabolic Activation: RAT LIVER S-9, Method: PREINCUBATION): inactive; negative
- mutagenic call [2]: active; positive
- mutagenic call (Test System: AMES SALMONELLA TYPHIMURIUM, Strain/Indicator: TA100, Metabolic Activation: NONE, Method: FLUCTUATION TEST): inactive; negative
- mutagenic call (Test System: AMES SALMONELLA TYPHIMURIUM, Strain/Indicator: TA100, Metabolic Activation: NONE, Method: PREINCUBATION): inactive; negative
- mutagenic call [3]: active; positive
- mutagenic call (Test System: AMES SALMONELLA TYPHIMURIUM, Strain/Indicator: TA100, Metabolic Activation: RAT LIVER S-9, Method: PREINCUBATION): inactive; negative
- mutagenic call (Test System: AMES SALMONELLA TYPHIMURIUM, Strain/Indicator: TA100, Metabolic Activation: RAT, LIVER, S-9, AROCLOR 1254, Method: FLUCTUATION TEST): inactive; negative
- mutagenic call [4]: active; positive
- mutagenic call (Test System: AMES SALMONELLA TYPHIMURIUM, Strain/Indicator: TA1535 (GST-), Metabolic Activation: NONE, Method: STANDARD PLATE): inactive; negative
- mutagenic call [5]: active; positive
- mutagenic call [6]: active; positive
- mutagenic call [7]: active; positive
- mutagenic call (Test System: Ames Salmonella typhimurium, Strain/Indicator: TA98, Metabolic Activation: None, Method: Gas exposure method): inactive; negative
- mutagenic call (Test System: Ames Salmonella typhimurium, Strain/Indicator: TA98, Metabolic Activation: Rat, Liver, S9, Sodium phenobarbital and 5,6-benzoflavone (10%), Method: Gas exposure method): inactive; negative
- mutagenic call (Test System: Ames Salmonella typhimurium, Strain/Indicator: TA100, Metabolic Activation: None, Method: Gas exposure method): inactive; negative
- mutagenic call (Test System: Ames Salmonella typhimurium, Strain/Indicator: TA100, Metabolic Activation: Rat, Liver, S9, Sodium phenobarbital and 5,6-benzoflavone (10%), Method: Gas exposure method): inactive; negative
- mutagenic call (Test System: Ames Salmonella typhimurium, Strain/Indicator: TA1535, Metabolic Activation: None, Method: Gas exposure method): inactive; negative
- mutagenic call (Test System: Ames Salmonella typhimurium, Strain/Indicator: TA1535, Metabolic Activation: Rat, Liver, S9, Sodium phenobarbital and 5,6-benzoflavone (10%), Method: Gas exposure method): inactive; negative
- mutagenic call (Test System: Ames Salmonella typhimurium, Strain/Indicator: TA1537, Metabolic Activation: None, Method: Gas exposure method): inactive; negative
- mutagenic call (Test System: Ames Salmonella typhimurium, Strain/Indicator: TA1537, Metabolic Activation: Rat, Liver, S9, Sodium phenobarbital and 5,6-benzoflavone (10%), Method: Gas exposure method): inactive; negative
- mutagenic call (Test System: CHINESE HAMSTER V-79, Strain/Indicator: V-79/8-AZAGUANINE, Metabolic Activation: NONE, Method: SUSPENSION/PLATE): active; positive
- mutagenic call (Test System: CHINESE HAMSTER V-79, Strain/Indicator: V-79/OUABAIN, Metabolic Activation: NONE, Method: SUSPENSION/PLATE): inactive; negative
- mutagenic call (Test System: E. coli, Strain/Indicator: WP2/pKM101, Metabolic Activation: None, Method: Gas exposure method): inactive; negative (two experimental trials)
- mutagenic call (Test System: E. coli, Strain/Indicator: WP2/pKM101, Metabolic Activation: Rat, Liver, S9, Sodium phenobarbital and 5,6-benzoflavone (10%) with glutathione, Method: Gas exposure method): inactive; negative (two experimental trials)
- mutagenic call (Test System: E. coli, Strain/Indicator: WP2/pKM101, Metabolic Activation: Rat, Liver, S9, Sodium phenobarbital and 5,6-benzoflavone (10%) without glutathione, Method: Gas exposure method): inactive; negative (two experimental trials)
- mutagenic call (Test System: E. coli, Strain/Indicator: WP2uvrA/pKM101, Metabolic Activation: None, Method: Gas exposure method): inactive; negative
- mutagenic call (Test System: E. coli, Strain/Indicator: WP2uvrA/pKM101, Metabolic Activation: Rat, Liver, S9, Sodium phenobarbital and 5,6-benzoflavone (10%), Method: Gas exposure method): inactive; negative
- mutagenic call (Test System: E.COLI, Strain/Indicator: WP2UVRA/PKM101, Metabolic Activation: NONE, Method: GAS EXPOSURE): inactive; negative
- mutagenic call (Test System: E.COLI, Strain/Indicator: WP2UVRA/PKM101, Metabolic Activation: RAT LIVER S-9, PHENOBARBITOL AND 5,6-BENZOFLAVONE, GLUTATHIONE-SUPPLEMENTED, Method: GAS EXPOSURE): active; positive
- mutagenic call (Test System: E.COLI, Strain/Indicator: WP2UVRA/PKM101, Metabolic Activation: RAT LIVER S-9, PHENOBARBITOL AND 5,6-BENZOFLAVONE, Method: GAS EXPOSURE): inactive; negative
- mutagenic call (Test System: MOUSE LYMPHOMA, Strain/Indicator: L5178Y (TK+/TK-), Metabolic Activation: NONE, Method: SUSPENSION/PLATE): inactive; negative
- mutagenic call (Test System: MOUSE LYMPHOMA, Strain/Indicator: L5178Y (TK+/TK-), Metabolic Activation: RAT, LIVER, S-9, AROCLOR 1254, Method: SUSPENSION/PLATE): active; positive
- mutagenic call (Test System: UDS MOUSE HEPATOCYTES, Strain/Indicator: THY INCORP, Metabolic Activation: NONE, Method: AUTORADIOGRAPHY): inactive; negative

Structure (SMILES): C=C(C)OC(C)=O
- mutagenic call (Test System: AMES SALMONELLA TYPHIMURIUM, Strain/Indicator: TA98, Metabolic Activation: HAMSTER, LIVER, S-9, AROCLOR 1254, Method: STANDARD PLATE): inactive; negative
- mutagenic call [1]: inactive; negative
- mutagenic call [2]: inactive; negative
- mutagenic call (Test System: AMES SALMONELLA TYPHIMURIUM, Strain/Indicator: TA100, Metabolic Activation: HAMSTER, LIVER, S-9, AROCLOR 1254, Method: STANDARD PLATE): inactive; negative
- mutagenic call [3]: inactive; negative
- mutagenic call [4]: inactive; negative
- mutagenic call (Test System: AMES SALMONELLA TYPHIMURIUM, Strain/Indicator: TA1535, Metabolic Activation: HAMSTER, LIVER, S-9, AROCLOR 1254, Method: STANDARD PLATE): inactive; negative
- mutagenic call (Test System: AMES SALMONELLA TYPHIMURIUM, Strain/Indicator: TA1535, Metabolic Activation: NONE, Method: STANDARD PLATE): inactive; negative
- mutagenic call [5]: inactive; negative
- mutagenic call (Test System: AMES SALMONELLA TYPHIMURIUM, Strain/Indicator: TA1537, Metabolic Activation: HAMSTER, LIVER, S-9, AROCLOR 1254, Method: STANDARD PLATE): inactive; negative
- mutagenic call [6]: inactive; negative
- mutagenic call [7]: inactive; negative
- mutagenic call (Test System: AMES SALMONELLA TYPHIMURIUM, Strain/Indicator: TA1538, Metabolic Activation: HAMSTER, LIVER, S-9, AROCLOR 1254, Method: STANDARD PLATE): inactive; negative
- mutagenic call (Test System: AMES SALMONELLA TYPHIMURIUM, Strain/Indicator: TA1538, Metabolic Activation: NONE, Method: STANDARD PLATE): inactive; negative
- mutagenic call (Test System: AMES SALMONELLA TYPHIMURIUM, Strain/Indicator: TA1538, Metabolic Activation: RAT, LIVER, S-9, AROCLOR 1254, Method: STANDARD PLATE): inactive; negative
- mutagenic call (Test System: Mouse lymphoma, Strain/Indicator: L5178Y (tk+/tk-), Metabolic Activation: None, Method: Suspension/plate): active; inconclusive (previously evaluated positive)
- mutagenic call (Test System: Mouse lymphoma, Strain/Indicator: L5178Y (tk+/tk-), Metabolic Activation: Rat, liver, S-9, Aroclor 1254, Method: Suspension/plate): inactive; negative

Structure (SMILES): C1=C2c3ccccc3CCC2CCC1 (stereo not given)
- mutagenic call (Test System: AMES SALMONELLA TYPHIMURIUM, Strain/Indicator: TA98, Metabolic Activation: RAT, LIVER, S-9, SODIUM PHENOBARBITAL AND BETA-NAPHTHOFLAVONE, Method: STANDARD PLATE): active; positive
- mutagenic call (Test System: AMES SALMONELLA TYPHIMURIUM, Strain/Indicator: TA100, Metabolic Activation: RAT, LIVER, S-9, SODIUM PHEOBARBITAL AND BETA-NAPHTHOFLAVONE, Method: STANDARD PLATE): active; positive

Structure (SMILES): O[C@H]1c2ccccc2-c2cc3c(ccc4ccccc43)nc2[C@@H]1O
- mutagenic call (Test System: AMES SALMONELLA TYPHIMURIUM, Strain/Indicator: TA98, Metabolic Activation: GUINEA PIG, LIVER, S-9, 3-METHYLCHOLANTHRENE, Method: STANDARD PLATE): inactive; negative
- mutagenic call (Test System: AMES SALMONELLA TYPHIMURIUM, Strain/Indicator: TA100, Metabolic Activation: GUINEA PIG, LIVER, S-9, 3-METHYLCHOLANTHRENE, Method: STANDARD PLATE): inactive; negative
- mutagenic call (Test System: CHINESE HAMSTER V-79, Strain/Indicator: V-79/6-THIOGUANINE, Metabolic Activation: GUINEA PIG, LIVER, S-9, 3-METHYLCHOLANTHRENE): active; positive

Structure (SMILES): O=[N+]([O-])[O-].O=[N+]([O-])[O-].O=[N+]([O-])[O-].[Gd+3]
- mutagenic call (Test System: UDS HUMAN LYMPHOCYTES, Strain/Indicator: THYMIDINE INCORPORATION, Metabolic Activation: NONE, Method: LIQUID SCINTILLATION COUNTING): active; positive
